Results reported in patent US9234025B2, “Extracellular allosteric inhibitor binding domain from a tyrosine kinase receptor” (SANOFI, priority 2009, dated 2016).

System: FGFR2
Test: FRS2, Erk1/2 and PLCγ phosphorylation in FGFR2-transfected HEK293 cells (western blot)
Type: cell-based, human
Conditions: compound at 1 μM
Procedure: HEK293 cells were either transiently of stably transfected (using FuGENE 6, Roche) with hFGFR2IIIca or hFGFR2IIIca-Y328D cloned in pcDNA3 (Invitrogen). Stably transfected cells were grown in G418 (400 μg/ml) containing medium. Before stimulation, the cells were starved overnight in DMEM (0% serum), and pre-incubated with […] at the required concentration. The cells were subsequently stimulated with FGF2 (concentration between 0.5-10 ng/ml) for 5 min at 37° C. with or without SSR or SU5402 at 1 μM. After washing with ice-cold phosphate-buffered saline containing phosphatase inhibitors (Roche), cells were lysed in RIPA buffer (Tris 30 mM HCl pH 7.5, 150 mM NaCl, 1 mM EDTA, 1% triton-X, 0.5% w/v deoxycholate, containing phophatase and protease inhibitors as described by the manufacturer (Roche)). Cell lysates were centrifuged at 12,000 g for 10 min, and the supernatants were collected. Proteins were separated on Novex polyacrylamide gels (Invitrogen, Carlsbad, Calif.) and subsequently transferred onto Hybond ECL nitrocellulose membranes (Amersham Pharmacia). Following incubation with 5% non-fat milk powder in PBS, the membranes were incubated overnight at 4° C. with the following antibodies: phospho-ERK1/2 (CST:9101), phospho-FRS2 (CST:3861), phospho-PLCγ (CST:2821) and FGFR2 (F0300, Sigma).
In order to evaluate SSR effect on FGFR-controlled phosphor-signalling, HEK293 cells have been transfected with FGFR2 and the two main pathways following FGFR autophosphorylation, PLCγ and FRS2, have been studied by western blot in comparison with a published FGFR tyrosine kinase inhibitor SU5402 described to inhibit FGFR-dependent FRS2 and PLCγ cascades (Zhen et al., Oncogene 2007). In such cells, FGF induces FRS2, Erk1/2 and PLCγ phosphorylation. […] More generally, these differences in phosphorylation can be used as reporter to evaluate allosteric modulators.

Cc1c[nH]c(/C=C2\C(=O)Nc3ccccc32)c1CCC(=O)O [SU5402]
blocks: FGF-induced Erk1/2 phosphorylation | FGF-induced FRS2 phosphorylation | FGF-induced PLCγ phosphorylation
